In patent US8163777B2, “Benzimidazolyl-pyridine compounds for inflammation and immune-related uses” (Synta Pharmaceuticals Corp., priority 2006, dated 2012):

Test system: IL-2, IL-4, IL-5, IL-13, GM-CSF, INF-γ and TNF-α
Experiment: Inhibition of multiple cytokines in primary human PBMCs (summary statement)
Type: cell-based
Details: PHA-stimulated PBMCs
Description: Cytokine production was measured using commercially available human ELISA assay kits (from Cell Science, Inc.) following the manufacturers instructions.

## COc1ccc2c(c1)nc(C(F)(F)F)n2-c1ccc(NC(=O)c2ccc3c(c2)OCO3)cc1 [Compound 75, Benzo[1,3]dioxole-5-carboxylic acid {N-[4-(2-trifluoromethyl-5-methoxy-benzoimidazol-1-yl)-phenyl]} amide]
  inhibition of IL-2, IL-4, IL-5, IL-13, GM-CSF, INF-γ and TNF-α (in words): potent inhibitors
